Results as given in patent US11014902B2, “MYC G-quadruplex stabilizing small molecules and their use” (The United States of America, as represented by the …, priority 2015, dated 2021).

What was measured:
Assay in all cases: NCI-60 cell growth (SRB)
Format in all cases: cell-based
786-0 = conditions: 786-0, Renal Cancer; 10 μM, 48 hours
Method: (§1) This example illustrates that Compounds 1 and 23 can be used in inhibit the growth of c-Myc expressing cancer cell lines in vitro. The NCI-60 panel of cancer cell lines (see Shoemaker, Nat. Rev. Cancer, 6, 813-823, 2006, and dtp.cancer.gov/discovery_development/nci-60/) was assayed for cell growth in the presence of 10 μM Compound 1 or Compound 23 for 48 hours. At 48 hours, the assay was terminated by fixation with TCA and determination of relative cell counts by addition of Sulforhodamine B (SRB, see Alley et al., Cancer Research, 48: 589-601, 1988.). Growth percent was determined by comparison of SRB reading of a duplicate plate of cells taken at the time of compound addition to the SRB reading at the termination of the treatment. The following table provides a summary of the percent of growth of each cell line in the panel compared to control (no treatment), as well as the mean delta and range of percent growth compared to control across the panel of cell lines for each treatment condition.

A498 = conditions: A498, Renal Cancer; 10 μM, 48 hours
Method: as §1

A549/ATCC = conditions: Non-Small Cell Lung Cancer, 10 μM, 48 hours
Method: as §1

ACHN = conditions: Renal Cancer, 10 μM, 48 hours
Method: as §1

CCRF-CEM = conditions: Leukemia, 10 μM, 48 hours
Method: as §1

HCC-2998 = conditions: HCC-2998, Colon Cancer; 10 μM, 48 hours
Method: as §1

HCT-15 = conditions: HCT-15, Colon Cancer; 10 μM, 48 hours
Method: as §1

HL-60(TB) = conditions: Leukemia, 10 μM, 48 hours
Method: as §1

HOP-62 = conditions: HOP-62, Non-Small Cell Lung Cancer; 10 μM, 48 hours
Method: as §1

HOP-92 = conditions: HOP-92, Non-Small Cell Lung Cancer; 10 μM, 48 hours
Method: as §1

HT29 = conditions: HT29, Colon Cancer; 10 μM, 48 hours
Method: as §1

LOX IMVI = conditions: Melanoma, 10 μM, 48 hours
Method: as §1

M14 = conditions: M14, Melanoma; 10 μM, 48 hours
Method: as §1

MALME-3M = conditions: Melanoma, 10 μM, 48 hours
Method: as §1

MCF7 = conditions: MCF7, Breast Cancer; 10 μM, 48 hours
Method: as §1

MDA-MB-231/ATCC = conditions: Breast Cancer, 10 μM, 48 hours
Method: as §1

MDA-MB-435 = conditions: MDA-MB-435, Melanoma; 10 μM, 48 hours
Method: as §1

MOLT-4 = conditions: MOLT-4, Leukemia; 10 μM, 48 hours
Method: as §1

NCI-H322M = conditions: Non-Small Cell Lung Cancer, 10 μM, 48 hours
Method: as §1

NCI-H460 = conditions: NCI-H460, Non-Small Cell Lung Cancer; 10 μM, 48 hours
Method: as §1

NCI-H522 = conditions: NCI-H522, Non-Small Cell Lung Cancer; 10 μM, 48 hours
Method: as §1

NCI/ADR-RES = conditions: Ovarian Cancer, 10 μM, 48 hours
Method: as §1

OVCAR-3 = conditions: OVCAR-3, Ovarian Cancer; 10 μM, 48 hours
Method: as §1

OVCAR-4 = conditions: OVCAR-4, Ovarian Cancer; 10 μM, 48 hours
Method: as §1

OVCAR-8 = conditions: OVCAR-8, Ovarian Cancer; 10 μM, 48 hours
Method: as §1

RPMI-8226 = conditions: RPMI-8226, Leukemia; 10 μM, 48 hours
Method: as §1

SF-539 = conditions: SF-539, CNS Cancer; 10 μM, 48 hours
Method: as §1

SK-MEL-28 = conditions: SK-MEL-28, Melanoma; 10 μM, 48 hours
Method: as §1

SK-MEL-2 = conditions: SK-MEL-2, Melanoma; 10 μM, 48 hours
Method: as §1

SNB-75 = conditions: SNB-75, CNS Cancer; 10 μM, 48 hours
Method: as §1

SW-620 = conditions: SW-620, Colon Cancer; 10 μM, 48 hours
Method: as §1

T-47D = conditions: Breast Cancer, 10 μM, 48 hours
Method: as §1

TK-10 = conditions: TK-10, Renal Cancer; 10 μM, 48 hours
Method: as §1

UACC-257 = conditions: UACC-257, Melanoma; 10 μM, 48 hours
Method: as §1

UACC-62 = conditions: UACC-62, Melanoma; 10 μM, 48 hours
Method: as §1

`Cc1ccc(NC(=O)c2c(C)oc3ccc(O)c(CN4CCCCCC4)c23)cc1` [Compound 1] was tested, and the “Growth Percent” value (786-0) was 84.68%, the “Growth Percent” value (A498) was 64.12% and the “Growth Percent” value (A549/ATCC) was 85.87%. The “Growth Percent” value (ACHN) was 93.94%, the “Growth Percent” value (CCRF-CEM) was 87.67% and the “Growth Percent” value (HCC-2998) was 116.36%. The “Growth Percent” value (HCT-15) was 83.45%, the “Growth Percent” value (HL-60(TB)) was 92.74% and the “Growth Percent” value (HOP-62) was 79.76%. For the same compound, the “Growth Percent” value (HOP-92) was 55.89%, the “Growth Percent” value (HT29) was 100.25% and the “Growth Percent” value (LOX IMVI) was 88.87%. For the same compound, the “Growth Percent” value (M14) was 85.90%, the “Growth Percent” value (MALME-3M) was 107.60% and the “Growth Percent” value (MCF7) was 78.41%. For the same compound, the “Growth Percent” value (MDA-MB-231/ATCC) was 79.39%, the “Growth Percent” value (MDA-MB-435) was 95.94% and the “Growth Percent” value (MOLT-4) was 92.81%. The “Growth Percent” value (NCI-H322M) was 97.51%, the “Growth Percent” value (NCI-H460) was 80.25% and the “Growth Percent” value (NCI-H522) was 90.68%. The “Growth Percent” value (NCI/ADR-RES) was 89.34%, the “Growth Percent” value (OVCAR-3) was 101.03% and the “Growth Percent” value (OVCAR-4) was 82.06%. For the same compound, the “Growth Percent” value (OVCAR-8) was 89.96%, the “Growth Percent” value (RPMI-8226) was 91.38% and the “Growth Percent” value (SF-539) was 93.10%. The “Growth Percent” value (SK-MEL-28) was 96.60%, the “Growth Percent” value (SK-MEL-2) was 99.26% and the “Growth Percent” value (SNB-75) was 78.34%. For the same compound, the “Growth Percent” value (SW-620) was 85.97%, the “Growth Percent” value (T-47D) was 92.74% and the “Growth Percent” value (TK-10) was 92.66%. The “Growth Percent” value (UACC-257) was 112.11% and the “Growth Percent” value (UACC-62) was 102.82%.
With `Cc1oc2ccc(O)c(CN3CCCCCC3)c2c1C(=O)Nc1ccc(C(F)(F)F)cc1` [Compound 23] the “Growth Percent” value (786-0) was 49.50%, the “Growth Percent” value (A498) was 50.48% and the “Growth Percent” value (A549/ATCC) was 61.22%. For the same compound, the “Growth Percent” value (ACHN) was 68.48%, the “Growth Percent” value (CCRF-CEM) was 65.23% and the “Growth Percent” value (HCC-2998) was 11.22%. For the same compound, the “Growth Percent” value (HCT-15) was 45.06%, the “Growth Percent” value (HL-60(TB)) was 83.01% and the “Growth Percent” value (HOP-62) was 70.39%. The “Growth Percent” value (HOP-92) was 34.88%, the “Growth Percent” value (HT29) was 80.45% and the “Growth Percent” value (LOX IMVI) was 39.15%. For the same compound, the “Growth Percent” value (M14) was 58.14%, the “Growth Percent” value (MALME-3M) was 49.92% and the “Growth Percent” value (MCF7) was 48.09%. The “Growth Percent” value (MDA-MB-231/ATCC) was 48.96%, the “Growth Percent” value (MDA-MB-435) was 58.22% and the “Growth Percent” value (MOLT-4) was 64.31%. The “Growth Percent” value (NCI-H322M) was 69.34%, the “Growth Percent” value (NCI-H460) was 51.53% and the “Growth Percent” value (NCI-H522) was 72.52%. The “Growth Percent” value (NCI/ADR-RES) was 53.65%, the “Growth Percent” value (OVCAR-3) was 62.02% and the “Growth Percent” value (OVCAR-4) was 58.58%. For the same compound, the “Growth Percent” value (OVCAR-8) was 66.34%, the “Growth Percent” value (RPMI-8226) was 75.08% and the “Growth Percent” value (SF-539) was 61.23%. The “Growth Percent” value (SK-MEL-28) was 76.90%, the “Growth Percent” value (SK-MEL-2) was 78.38% and the “Growth Percent” value (SNB-75) was 50.57%. The “Growth Percent” value (SW-620) was 67.44%, the “Growth Percent” value (T-47D) was 73.98% and the “Growth Percent” value (TK-10) was 81.06%. The “Growth Percent” value (UACC-257) was 82.00% and the “Growth Percent” value (UACC-62) was 67.27%.
